Reference: patent publication US10328087B2, “Formulations for solubilizing hormones” (TherapeuticsMD, Inc., priority 2015, dated 2019)
Marks after values point to notes of the source that are not given here.

What was measured:
[1] = test system: ovariectomized female Crl:CD rats; assay: Transdermal progesterone opposing estradiol effects on uterus and vagina in ovariectomized rats; type: in vivo, rat; settings: for Endometrial Gland Density, LSMean / Endometrial Gland Size, LSMean / Endometrial Height, LSMean / Luminal Epithelial Cell Height, LSMean / Number of Mitotic Figures, LSMean: Day 8, EST 3 μg/kg SC alone, or with 10 mg/kg SC Prog, or with 3.125 mg/kg Dermal Prog
Description: Transdermally delivered progesterone blocked growth-related estrogenic effects on the endometrium and vagina in ovariectomized rats.
Thirty-two 8-week-old female Crl:CD® rats underwent ovariectomy 2 weeks prior to the start of the study. Rats were then randomly assigned to 4 groups of 8 rats each and dosed according to the schedule in Table 4. Control animals were dosed with saline or vehicle as noted. Two hours after the final dose on Day 8, the rats were humanely euthanized and the rats' vaginas and the distal portions of the rats' uterine horns were fixed and processed for histology and computer-aided morphometry.

[2] = Solubility of progesterone in solvent (concentration for clear solution); type: physicochemical
Text: Without wishing to be bound by any particular theory, it is believed that the compositions and methods described herein address the problems associated with known steroid hormone formulations such as poor solubility, poor bioavailability, and poor stability. More specifically, it has now been discovered that terpenes are unexpectedly effective in enhancing the solubility of insoluble steroid hormones such as progesterone and likewise act as excellent penetration enhancers for these same compounds. […] The compositions can also have any combination of enhanced dissolution rates, penetration capabilities, absorption, and bioavailability.

[3] = estradiol-treated ovariectomized rats, progesterone SC or transdermally

Row | Compound | Endometrial Gland Density, LSMean ([1]; ovariectomized rats) | Endometrial Gland Size, LSMean ([1]; ovariectomized rats) | Endometrial Height, LSMean ([1]; ovariectomized rats) | Luminal Epithelial Cell Height, LSMean ([1]; ovariectomized rats) | Number of Mitotic Figures, LSMean ([1]; ovariectomized rats) | effect on the uterus (organ weight measurements and histology) ([1]; unopposed estradiol treatment, ovariectomized rats) | Concentration of Progesterone (mg/g) for clear solution ([2]; solvent Absolute Ethanol) [mg/g] | Concentration of Progesterone (mg/g) for clear solution ([2]; solvent d-Limonene) [mg/g] | uterine weight ([1]; estradiol-treated ovariectomized rats receiving progesterone SC or transdermally, FIGS. 5 and 6) | endometrial gland density compared to unopposed estradiol [1, 3] | luminal epithelial cell height compared to unopposed estradiol [1, 3] | estrogen-specific cellular aspects in the uterus and vagina ([1]; histology, estradiol-treated ovariectomized rats receiving progesterone SC or transdermally)
1 | C[C@]12CC[C@@H]3c4ccc(O)cc4CC[C@H]3[C@@H]1CC[C@@H]2O [EST, (17β)-estra-1,3,5(10)-triene-3,17-diol] | 7.09^b cells/mm^2 | 4540^b μm^2 | 418^b μm | 47.8^b μm | 921^b | hypertrophy |  |  |  |  |  | 
2 | CC(=O)[C@H]1CC[C@H]2[C@@H]3CCC4=CC(=O)CC[C@]4(C)[C@H]3CC[C@]12C [Progesterone, pregn-4-ene-3,20-dione] | 10.3^b,d cells/mm^2 | 4390^b μm^2 | 436^b μm | 31.91^b,d μm | 595^b,d |  | 57 | 204.0 | Significantly reduced | significant increase | significant reduction | not detected
